The record followed here is patent US20160355530A1, “HEPATITIS C INHIBITORS AND USES THEREOF” (AbbVie Inc., priority 2010, published 2016).

Molecules are shown by their SMILES. Like-named read-outs stand apart in the source and are kept apart here.

Experiment [1] concerns chimeric replicon with genotype 4a NS5B. Briefly: microbe, parasite or virus in culture. The format is cell-based, HCV genotype 4a. The conditions noted are these: Hepatitis C virus, read-out: 4a chimera 5% FBS EC50.
For experiment [2], the system named is HCV 1a-H77 transient subgenomic replicon in Huh-7 derived cell line. Kind of experiment: microbe, parasite or virus in culture. The format is cell-based, HCV genotype 1a. To be noted: Hepatitis C virus, Huh-7; transient replicon, 5% FBS; read-out: Transient Replicon 1a H77 5% FBS EC50. The method, then:
(§1) In addition to the stable replicon inhibition assays, transient replicon assays were performed. Transient replicons are identical to the 1a-H77 and 1a-H77-C316Y constructs, except they lack the Neo gene, making it impossible to establish stable cell lines. A T7 Megascript RNA synthesis kit (Ambion) was used to transcribe the HCV subgenomic RNA. The HCV RNA was then precipitated with lithium chloride according to manufacturer's instructions. The HCV subgenomic replicon RNA was transfected via electroporation into a Huh-7 derived cell line as described (Middleton T, et al. J. Virological Methods 2007; 145(2): 137-145). Transfected cells were diluted and plated in 96 well plates at 5×10^3 cells per well in DMEM. Four hours post-transfection, the wells from one plate were harvested for luciferase measurement. This plate provides a measure of the amount of translatable input RNA, and therefore transfection efficiency. To the wells of the remaining plates, a 3-fold dilution series of test compounds was added in DMSO (0.5% DMSO final concentration), and plates were incubated at 37° C., 5% CO2 in a humidified incubator for 4 days. After this period, the media was removed and the plates were washed with 100 μL phosphate-buffered saline per well. For the luciferase assay, 30 μL of Passive Lysis buffer (Promega) was added to each well, and then the plates were incubated for 15 minutes with rocking to lyse the cells. Luciferin solution (100 μL, Promega) was added to each well, and luciferase activity was measured with a Victor II luminometer (Perkin-Elmer). The EC50 values were calculated using GraphPad Prism 4 software.
A general note: Replicon systems follow genome replication, usually without infectious particles.

In experiment [3] the test system is chimeric replicon with 2a-J6CF-derived NS5B. Kind of experiment: microbe, parasite or virus in culture. The conditions noted are these: Hepatitis C virus, read-out: 2a chimera 5% FBS EC50. The format is cell-based, HCV genotype 2a.
In experiment [4] the test system is chimeric replicon with genotype 2b NS5B. Briefly: microbe, parasite or virus in culture. To be noted: Hepatitis C virus, read-out: 2b chimera 5% FBS EC50. The format is cell-based, HCV genotype 2b.
For experiment [5], the system named is HCV 1b-BB7 subgenomic replicon. Kind of experiment: microbe, parasite or virus in culture. The format is cell-based, HCV genotype 1b. To be noted: Hepatitis C virus, stable replicon.
Experiment [6] relates to chimeric replicon with genotype 3a NS5B. Briefly: microbe, parasite or virus in culture. The format is cell-based, HCV genotype 3a. To be noted: Hepatitis C virus, read-out: 3a chimera 5% FBS EC50.
Experiment [7] deals with T1, HCV NS5B polymerase 1a-H77-C316Y (Hepatitis C virus genotype 1a, UniProt P27958, C2736Y).
T1 construct: six-histidine tag; made in house; host or cells: E. coli
T1 sequence (P27958 2421-2990 C2736Y): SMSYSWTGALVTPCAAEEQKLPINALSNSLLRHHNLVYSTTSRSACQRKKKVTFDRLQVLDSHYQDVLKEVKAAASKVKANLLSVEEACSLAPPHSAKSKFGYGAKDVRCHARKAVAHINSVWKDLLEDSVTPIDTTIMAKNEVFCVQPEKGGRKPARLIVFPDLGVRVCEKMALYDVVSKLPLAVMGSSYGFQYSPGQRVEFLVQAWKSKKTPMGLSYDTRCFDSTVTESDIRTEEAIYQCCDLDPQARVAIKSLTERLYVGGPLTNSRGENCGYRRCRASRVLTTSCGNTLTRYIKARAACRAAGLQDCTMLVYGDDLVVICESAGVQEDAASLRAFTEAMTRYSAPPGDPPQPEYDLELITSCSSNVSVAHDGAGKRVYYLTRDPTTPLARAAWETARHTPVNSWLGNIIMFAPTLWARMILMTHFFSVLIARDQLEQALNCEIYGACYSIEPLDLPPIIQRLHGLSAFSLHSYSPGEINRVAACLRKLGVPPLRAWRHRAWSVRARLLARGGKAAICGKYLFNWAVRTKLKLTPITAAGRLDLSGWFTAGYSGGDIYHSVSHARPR
Kind of experiment: biochemical. Details: species or system HCV genotype 1a. The method, boiled down: (§2)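 E. coli-expressed NS5B (residues 1-570, His-tagged) transcribed a 2.1 kb HCV 1b negative-strand 3′-end RNA template (5 nM) with 20 μM CTP, 20 μM ATP and 0.284 μM [3H]UTP for 3 h at 30° C. Spermine-precipitated RNA was filter-captured and counted by scintillation; IC50 from nonlinear regression.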

Experiment [8] deals with HCV NS5B polymerase 1a-H77-C316Y. Briefly: biochemical. Details: species or system HCV genotype 1a. To be noted: ratio of enzyme IC50s, 1a H77-C316Y / 1a H77. The method, boiled down: as §2
In experiment [9] the target is T2, HCV NS5B polymerase 1a-H77 (Hepatitis C virus genotype 1a, UniProt P27958).
T2 construct: six-histidine tag; made in house; host or cells: E. coli
T2 sequence (P27958 2421-2990): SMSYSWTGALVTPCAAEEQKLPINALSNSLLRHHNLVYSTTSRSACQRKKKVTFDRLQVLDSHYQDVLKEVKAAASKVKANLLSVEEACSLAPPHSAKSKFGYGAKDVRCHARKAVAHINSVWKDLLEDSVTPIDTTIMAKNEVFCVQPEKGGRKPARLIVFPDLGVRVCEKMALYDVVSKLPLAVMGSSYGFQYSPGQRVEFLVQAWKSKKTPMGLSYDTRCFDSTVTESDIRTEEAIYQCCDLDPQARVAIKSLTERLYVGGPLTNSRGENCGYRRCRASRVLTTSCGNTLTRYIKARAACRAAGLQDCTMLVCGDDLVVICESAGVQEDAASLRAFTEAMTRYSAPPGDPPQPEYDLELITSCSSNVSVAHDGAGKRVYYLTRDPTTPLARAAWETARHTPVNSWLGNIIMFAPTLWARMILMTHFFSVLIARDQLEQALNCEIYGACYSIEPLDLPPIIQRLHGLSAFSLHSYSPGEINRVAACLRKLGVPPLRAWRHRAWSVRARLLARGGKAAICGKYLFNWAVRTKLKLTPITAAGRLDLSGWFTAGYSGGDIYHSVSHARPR
Kind of experiment: biochemical. Details: species or system HCV genotype 1a. To be noted: enzyme, strain 1a H77; read-out: HCV Polymerase Strain 1a H77 IC50. An outline of the steps: as §2

For experiment [10], the target named is T3, HCV NS5B polymerase 1b BK strain (Hepatitis C virus genotype 1b, UniProt P26663).
T3 construct: six-histidine tag; made in house; host or cells: E. coli
T3 sequence (P26663 2420-2989): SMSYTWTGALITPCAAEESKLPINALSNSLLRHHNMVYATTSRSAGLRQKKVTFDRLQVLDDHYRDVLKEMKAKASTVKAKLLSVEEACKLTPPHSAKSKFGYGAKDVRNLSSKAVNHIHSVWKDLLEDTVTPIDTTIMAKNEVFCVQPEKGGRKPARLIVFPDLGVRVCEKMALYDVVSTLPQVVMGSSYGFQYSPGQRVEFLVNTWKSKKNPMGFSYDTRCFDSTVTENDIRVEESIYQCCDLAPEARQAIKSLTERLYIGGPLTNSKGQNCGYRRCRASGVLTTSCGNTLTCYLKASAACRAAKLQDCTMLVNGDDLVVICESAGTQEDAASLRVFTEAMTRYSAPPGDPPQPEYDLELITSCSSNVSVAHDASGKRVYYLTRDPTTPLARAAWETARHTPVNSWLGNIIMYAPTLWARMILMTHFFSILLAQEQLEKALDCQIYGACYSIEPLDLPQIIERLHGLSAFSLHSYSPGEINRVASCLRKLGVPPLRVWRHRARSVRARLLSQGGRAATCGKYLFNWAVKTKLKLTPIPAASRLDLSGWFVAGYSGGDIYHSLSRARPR
Kind of experiment: HCV NS5B polymerase enzymatic inhibition assay, strain 1b BK. The format is biochemical. To be noted: enzyme, strain 1b BK; read-out: HCV Polymerase Strain 1b BK IC50. An outline of the steps:
as §2

Experiment [11] concerns HCV 1a-H77 subgenomic replicon. Briefly: microbe, parasite or virus in culture. The format is cell-based, HCV genotype 1a. To be noted: Hepatitis C virus, stable replicon.
The test system of experiment [12] is HCV 1a-H77-C316Y transient subgenomic replicon in Huh-7 derived cell line. Briefly: microbe, parasite or virus in culture. The format is cell-based, HCV genotype 1a. The conditions noted are these: for EC50: Hepatitis C virus, Huh-7, read-out: Transient Replicon 1a H77-C316Y 5% FBS EC50; for Transient Replicon Fold Resistance C316Y/1a: ratio of transient replicon EC50s, C316Y / 1a H77. The method, then:
as §1

Where [13] appears, read: strain 1b BB7, 5% FBS + 40% human plasma, read-out: 1b BB7 5% FBS + 40% Human Plasma EC50.
Setting [14] is: strain 1b BB7, 5% FBS, no human plasma, read-out: 1b BB7 5% FBS EC50.
The mark [15] stands for this setting: strain 1b BB7, 5% FBS, read-out: 1b BB7 5% FBS EC50.
Setting [16] is: 5% FBS, absence of human plasma, read-out: Stable Replicon 1a H77 5% FBS EC50.
Setting [17] is: strain 1a H77, 5% FBS + 40% human plasma, read-out: 1a H77 5% FBS + 40% Human Plasma EC50.
Setting [18] is: strain 1a H77, 5% FBS, no human plasma, read-out: 1a H77 5% FBS EC50.
The mark [19] stands for this setting: strain 1a H77, 5% FBS, read-out: 1a H77 5% FBS EC50.

As to `CC(C)CN(c1cc2oc(-c3ccc(F)cc3)c(-c3ncc[nH]3)c2cc1C1CC1)S(C)(=O)=O` [Example 66, N-[5-cyclopropyl-2-(4-fluorophenyl)-3-(1H-imidazol-2-yl)-1-benzofuran-6-yl]-N-isobutylmethanesulfonamide], the EC50 is 318 nM in experiment [1]; 68.9 nM in experiment [2]; 215 nM in [3]; 293 nM in experiment [4]; 569 nM in [5] (setting [13]); 56.4 nM in experiment [5] (setting [14]). Moreover, the EC50 in experiment [5] (setting [15]) came out at 56.4 nM; in experiment [6] it was 83.9 nM; in [11] (setting [16]) it was 59.8 nM; in [11] (setting [17]) it was 683 nM; in [11] (setting [18]), 59.8 nM; in experiment [11] (setting [19]) it was 59.8 nM. The results for the IC50 in experiment [7], in experiment [9] and in [10] were 901 nM, 5.9 nM and 70 nM, respectively. The “C316Y/1a Fold Resistance” value in experiment [8] came out at 152 fold.
As to `CS(=O)(=O)N(CCCC(=O)O)c1cc2oc(-c3ccc(F)cc3)c(C3=NOCCN3)c2cc1C1CC1` [Example 135, 4-{[5-cyclopropyl-3-(5,6-dihydro-4H-1,2,4-oxadiazin-3-yl)-2-(4-fluorophenyl)-1-benzofuran-6-yl](methylsulfonyl)amino}butanoic acid], the EC50 in [2] stood at 372 nM; in experiment [12], 3040 nM; in experiment [5] (setting [13]) it was 5520 nM; in [5] (setting [14]) it was 783 nM; in experiment [5] (setting [15]), 783 nM; in experiment [11] (setting [16]), 969 nM. Also, the values for the EC50 in [11] (setting [17]), in experiment [11] (setting [18]) and in [11] (setting [19]) were 7910 nM, 969 nM and 969 nM, respectively. Moreover, the “Transient Replicon Fold Resistance C316Y/1a” value in experiment [12] is recorded as 8 fold. Also, the IC50 in experiment [7] was 41 nM; in experiment [9], 3.9 nM; in experiment [10], 28 nM. In experiment [8], the “C316Y/1a Fold Resistance” value came to 11 fold.
Regarding `CS(=O)(=O)Nc1cc2oc(-c3ccc(F)cc3)c(-c3ncc[nH]3)c2cc1C1CC1` [Example 1, N-[5-cyclopropyl-2-(4-fluorophenyl)-3-(1H-imidazol-2-yl)-1-benzofuran-6-yl]methanesulfonamide], the EC50 in experiment [1] amounted to 242 nM; in experiment [2], 192 nM; in experiment [3], 223 nM; in experiment [4], 219 nM; in [5] (setting [13]), 281 nM; in experiment [5] (setting [14]) it was 18.2 nM. Besides, the EC50 was determined as 18.2 nM in experiment [5] (setting [15]); 13 nM in [6]; 207 nM in experiment [11] (setting [16]); 4710 nM in experiment [11] (setting [17]); 207 nM in experiment [11] (setting [18]); 207 nM in [11] (setting [19]). The IC50 in experiment [7] stood at 1800 nM; in experiment [9] it was 5.9 nM; in experiment [10], 87 nM. Further, in experiment [8], the “C316Y/1a Fold Resistance” value was determined as 304 fold.
In the case of `CCCN(c1cc2oc(-c3ccc(F)cc3)c(-c3ncc[nH]3)c2cc1C1CC1)S(C)(=O)=O` [Example 64, N-[5-cyclopropyl-2-(4-fluorophenyl)-3-(1H-imidazol-2-yl)-1-benzofuran-6-yl]-N-propylmethanesulfonamide], the EC50 in experiment [1] was found to be 125 nM; in experiment [2], 20.2 nM; in [3], 57.9 nM; in [4], 67.4 nM; in experiment [5] (setting [13]), 110 nM; in experiment [5] (setting [14]) it was 12 nM. The 50% effective concentration (EC50) was 12 nM in [5] (setting [15]); 1.6 nM in experiment [6]; 24.3 nM in experiment [11] (setting [16]); 267 nM in experiment [11] (setting [17]); 24.3 nM in experiment [11] (setting [18]); 24.3 nM in experiment [11] (setting [19]). Further, the figures for the IC50 in experiment [7], in experiment [9] and in [10] were 180 nM, 5.3 nM and 29 nM, respectively. The “C316Y/1a Fold Resistance” value in experiment [8] came out at 34 fold.
Turning to `CC(C)CCN(c1cc2oc(-c3ccc(F)cc3)c(C3=NOC(C)N3)c2cc1C1CC1)S(C)(=O)=O` (stereo not drawn) [Example 14, N-[5-cyclopropyl-2-(4-fluorophenyl)-3-(5-methyl-4,5-dihydro-1,2,4-oxadiazol-3-yl)-1-benzofuran-6-yl]-N-(3-methylbutyl)methanesulfonamide], the EC50 in experiment [2] came to 28.1 nM; in [12], 152 nM; in experiment [5] (setting [13]), 1060 nM; in experiment [5] (setting [14]), 93.5 nM; in experiment [5] (setting [15]) it was 93.5 nM; in [11] (setting [16]), 24.3 nM. The EC50 in [11] (setting [17]) was 805 nM; in experiment [11] (setting [18]), 24.3 nM; in experiment [11] (setting [19]), 24.3 nM. The “Transient Replicon Fold Resistance C316Y/1a” value in experiment [12] is recorded as 5 fold. In addition, the IC50 in experiment [7] came to 70 nM; in [9], 8.5 nM; in [10] it was 35 nM. In experiment [8], the “C316Y/1a Fold Resistance” value is listed as 8 fold.
For the molecule `COc1ccc(CN(c2cc3oc(-c4ccc(F)cc4)c(C4=NOC(C)N4)c3cc2C2CC2)S(C)(=O)=O)cc1` (stereo not drawn) [Example 151, N-[5-cyclopropyl-2-(4-fluorophenyl)-3-(5-methyl-4,5-dihydro-1,2,4-oxadiazol-3-yl)-1-benzofuran-6-yl]-N-(4-methoxybenzyl)methanesulfonamide], the EC50 in [2] turned out to be 33.2 nM; in experiment [12], 2930 nM; in experiment [5] (setting [13]) it was 1500 nM; in experiment [5] (setting [14]) it was 30 nM; in [5] (setting [15]) it was 30 nM; in experiment [11] (setting [16]) it was 119 nM. The EC50 in experiment [11] (setting [17]) amounted to 2280 nM; in [11] (setting [18]), 119 nM; in experiment [11] (setting [19]) it was 119 nM. The “Transient Replicon Fold Resistance C316Y/1a” value in experiment [12] is on record as 88 fold. Besides, the IC50 in experiment [7] came to 102 nM; in [9] it was 9 nM; in experiment [10] it was 48 nM. Moreover, the “C316Y/1a Fold Resistance” value in experiment [8] is recorded as 11 fold.
On to `CSCCN(c1cc2oc(-c3ccc(F)cc3)c(-c3ncc[nH]3)c2cc1C1CC1)S(C)(=O)=O` [Example 74, N-[5-cyclopropyl-2-(4-fluorophenyl)-3-(1H-imidazol-2-yl)-1-benzofuran-6-yl]-N-[2-(methylthio)ethyl]methanesulfonamide], for which the EC50 in [1] is 86.5 nM; in experiment [3], 64 nM; in experiment [4], 57.8 nM; in experiment [5] (setting [13]), 127 nM; in experiment [5] (setting [14]), 6.5 nM; in experiment [5] (setting [15]), 6.4 nM. In addition, the EC50 is 4.5 nM in experiment [6]; 13.6 nM in [11] (setting [16]); 254 nM in experiment [11] (setting [17]); 13.6 nM in [11] (setting [18]); 13.6 nM in [11] (setting [19]). For the same molecule, the IC50 in experiment [7] came to 107 nM; in [9], 3 nM; in experiment [10] it was 13 nM. In addition, the “C316Y/1a Fold Resistance” value in experiment [8] was 36 fold.

A word on the EC50: it is the concentration needed to bring the measured effect to its halfway point. The IC50 is the midpoint of a concentration-inhibition curve.
